Measured values: patent US20090185973A1, “METHODS, COMPOSITIONS, UNIT DOSAGE FORMS, AND KITS FOR PHARMACOLOGIC STRESS TESTING WITH REDUCED SIDE EFFECTS” (ADENOBIO N.V., priority 2008, published 2009)
Where “and” joins values, the source holds several entries; their conditions need not be identical. Identical values can stand only once. Like-named read-outs stand apart in the source and are kept apart here.

Tests used:
Assay type in all cases: in vivo, human
[1] = system: coronary patients; test: TTDE coronary reserve study, concurrent administration for two minutes (Example 3); conditions: 31 patients
Excerpt: Primary efficacy end-points were peak and mean diastolic flow velocities (their measurements reflect coronary blood flow values). The secondary end-point was patient's tolerance to the procedure.

[2] = system: patients suffering from ischemic heart disease; test: Tolerance: occurrence and severity of adverse events (Example 1)
Excerpt: The secondary end-point was patient tolerance to the procedure.
Cumulative results on the severity of the three subjective symptoms of the composite (chest pain, dyspnea, flushing) rated from 0 to 30. Cumulative results on the severity of the three subjective symptoms of the composite (chest pain, dyspnea, flushing) rated from 0 to 30.

[3] = system: patients; test: Control: two consecutive adenosine infusions, TTDE velocities; conditions: for MV Min, individual patients / PV Min, individual patients / MV Min, mean / PV Min, mean: at rest; for MV Min, individual patients / PV Min, individual patients / PV Max, individual patients / MV Max, individual patients: ADE1 first, ADE2 second adenosine infusion; for MV Min, mean / PV Min, mean / MV Max, mean / PV Max, mean: mean of 5 patients; for PV Max, individual patients / MV Max, individual patients / MV Max, mean / PV Max, mean: under stress
Excerpt: Abbreviations used in the table are defined below:

[4] = system: patients
[5] = Delta = peak-BL, concurrent dipyridamole 10 + adenosine 70 μg/kg/min 2 min vs adenosine alone
[6] = concurrent dipyridamole 10 + adenosine 70 μg/kg/min 2 min vs adenosine alone
[7] = DIP4 (n = 5), dipyridamole 35 μg/kg
[8] = DIP5 (n = 30), dipyridamole 28 μg/kg
[9] = DIP6 (n = 5), dipyridamole 23 μg/kg
[10] = TOTAL (n = 40), all dipyridamole doses
[11] = all 40 patients, ADE 140 μg/kg/min, All SC (DIP 4/5/6)
[12] = DIP dose 28 μg/kg, ADE 140 μg/kg/min

Nc1ncnc2c1ncn2[C@@H]1O[C@H](CO)[C@@H](O)[C@H]1O [adenosine]
Delta mean velocity [1, 5]: 41.5 ± 15.3
Delta peak velocity [1, 5]: 54.4 ± 20.5
Peak velocity at baseline ([1]; at rest): 33.0 ± 12.9
Mean velocity at baseline ([1]; at rest, concurrent dipyridamole 10 μg/kg/min + adenosine 70 μg/kg/min 2 min vs adenosine alone 140 mg/kg/min (so in the source)): 25.2 ± 8.9
Coronary reserve assessment using mean velocity [1, 6]: 2.79 ± 0.90
Coronary reserve assessment using peak velocity [1, 6]: 2.82 ± 0.96
Severity of dyspnea [2, 7]: 1.4 ± 1.95
Severity of flushing [2, 7]: 2.9 ± 2.88
Severity of chest pain ([2]; DIP4 (n = 5): SC dipyridamole 35 μg/kg + adenosine 70 μg/kg/min vs adenosine alone 140 μg/kg/min): 1.2 ± 2.68
Severity of dyspnea [2, 8]: 2.33 ± 2.59
Severity of flushing [2, 8]: 2.35 ± 2.53
Severity of chest pain ([2]; DIP5 (n = 30): SC dipyridamole 28 μg/kg + adenosine 70 μg/kg/min vs adenosine alone 140 μg/kg/min): 1.12 ± 1.95
Severity of dyspnea [2, 9]: 5 ± 3.08
Severity of flushing [2, 9]: 3.2 ± 3.42
Severity of chest pain ([2]; DIP6 (n = 5): SC dipyridamole 23 μg/kg + adenosine 70 μg/kg/min vs adenosine alone 140 μg/kg/min): 0 ± 0
Severity of chest pain [2, 10]: 0.99 ± 1.93
Severity of dyspnea [2, 10]: 2.55 ± 2.71
Severity of flushing [2, 10]: 2.52 ± 2.63
Chest pain, frequency [2, 11]: 22.5%
Dyspnea, # patients reporting events [2, 11]: 20
Dyspnea, frequency [2, 11]: 50%
Flushing, # patients reporting events [2, 11]: 21
Flushing, frequency [2, 11]: 52.5%
Chest pain, # patients reporting events ([2]; all 40 patients, ADE adenosine alone 140 μg/kg/min, All SC (DIP 4/5/6) dipyridamole 23, 28 or 35 μg/kg + adenosine 70 μg/kg/min): 9
Max velocity differential MV (ADE1 − ADE2) ([3]; 5 patients): 52.6 (ADE2) = 2.4 cm/sec
Max velocity differential PV (ADE1 − ADE2) ([3]; 5 patients): 70.8 (ADE2) = 4.8 cm/sec
Difference in velocity measurements between two consecutive infusions ([3]; 140 mcg/kg/min, 5 minute interval, p>0.05): no difference was seen
MV Min, individual patients ([3]; listed as ADE1): 20 cm/s and 25 cm/s and 17 cm/s and 22 cm/s and 23 cm/s
PV Min, individual patients ([3]; listed as ADE1): 28 cm/sec and 34 cm/sec and 23 cm/sec and 30 cm/sec (2×)
MV Min, individual patients ([3]; listed as ADE2): 20 cm/s and 23 cm/s and 16 cm/s and 22 cm/s and 21 cm/s
PV Min, individual patients ([3]; listed as ADE2): 25 cm/sec and 31 cm/sec and 22 cm/sec and 29 cm/sec and 26 cm/sec
MV Min, mean ([3]; listed as ADE1): 21.4 cm/s
PV Min, mean ([3]; listed as ADE1): 29 cm/sec
MV Min, mean ([3]; listed as ADE2): 20.4 cm/s
PV Min, mean ([3]; listed as ADE2): 26.6 cm/sec
PV Max, individual patients ([3]; 140 mcg/kg/min, 5 minute interval, listed as ADE1): 70 cm/sec and 68 cm/sec and 65 cm/sec and 102 cm/sec and 73 cm/sec
PV Max, individual patients ([3]; 140 mcg/kg/min, 5 minute interval, listed as ADE2): 62 cm/sec and 60 cm/sec and 66 cm/sec and 103 cm/sec and 63 cm/sec
MV Max, individual patients ([3]; 140 mcg/kg/min, listed as ADE1): 50 cm/s and 49 cm/s and 48 cm/s and 75 cm/s and 53 cm/s
MV Max, individual patients ([3]; 140 mcg/kg/min, listed as ADE2): 48 cm/sec (2×) and 45 cm/sec and 75 cm/sec and 47 cm/sec
MV Max, mean ([3]; listed as ADE1): 55 cm/s
PV Max, mean ([3]; listed as ADE1): 75.6 cm/sec
MV Max, mean ([3]; listed as ADE2): 52.6 cm/s
PV Max, mean ([3]; listed as ADE2): 70.8 cm/sec
PV Max, individual patient ([4]; DIP dose 28 μg/kg bolus alone, ADE 140 μg/kg/min 3 min): 84 cm/sec
MV Max, individual patient [4, 12]: 64 cm/s
MV Min, individual patient [4, 12]: 20 cm/s
PV Min, individual patient [4, 12]: 27 cm/sec
PV Max, individual patients ([4]; DIP dose 35 μg/kg bolus alone, ADE 140 μg/kg/min 3 min, listed as ADE): 88 cm/sec and 84 cm/sec
MV Max, individual patients ([4]; DIP dose 35 μg/kg, ADE 140 μg/kg/min, listed as ADE): 71 cm/s and 61 cm/s
